In publication PMC3059195 (Journal of medicinal chemistry, 2010):
Read-outs that look alike come from different tables or passages of the source.

Tests used:
BP3 cell line = assay: Annexin V-FITC and propidium iodide apoptosis assay, BP3
[1] = tested on: B6-Bcl-2 transgenic mice (B-cells overexpress human Bcl-2); assay: B6-Bcl-2 transgenic mouse spleen weight study; settings: for tolerability / toxicity of treated mice: 60 μmol/kg i.p., single injection; for tolerability of treated mice: i.p. at 30 μmol/kg; for in vivo activity compared to 6a: dose of 60 μmol/kg (Figure 3A)
[2] = In vitro plasma stability; type: in vitro ADME
Bcl-XL = Bcl-XL (Homo sapiens, UniProt Q07817); assay: 2D [15N,1H]-HSQC binding to 15N-labeled Bcl-XL; settings: ligand/protein ratio of 1:1
Chain of Bcl-XL (Q07817 whole entry): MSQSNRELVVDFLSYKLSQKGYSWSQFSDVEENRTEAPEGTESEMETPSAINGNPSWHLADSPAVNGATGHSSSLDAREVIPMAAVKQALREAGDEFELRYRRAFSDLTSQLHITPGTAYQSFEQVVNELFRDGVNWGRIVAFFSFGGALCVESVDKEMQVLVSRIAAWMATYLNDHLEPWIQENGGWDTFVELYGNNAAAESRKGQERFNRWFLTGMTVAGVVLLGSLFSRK

PPC-1 xenograft tumors = settings: for tumor response compared with control group in first week: i.p. three times in first week at 50 mg/kg
[3] = tested on: B6-Bcl-2 transgenic mice (B-cells overexpress human Bcl-2); settings: ip, 60 umol/kg
GST–Bcl-XL ΔTM protein = GST–Bcl-XL ΔTM protein (Homo sapiens, UniProt Q07817); assay: Fluorescence polarization assay; type: binding
Chain of GST–Bcl-XL ΔTM protein (Q07817 1-211 limits assumed, stated change not applied): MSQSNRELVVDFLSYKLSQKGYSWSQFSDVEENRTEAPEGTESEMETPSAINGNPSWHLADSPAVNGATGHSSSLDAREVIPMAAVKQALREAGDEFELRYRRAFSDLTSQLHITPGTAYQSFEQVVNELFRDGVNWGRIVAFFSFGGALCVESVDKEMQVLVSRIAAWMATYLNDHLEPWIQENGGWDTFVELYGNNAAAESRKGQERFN

primary CLL cells = assay: Annexin-V apoptosis assay, primary CLL cells; type: cell-based, human; settings: one day Annexin-V apoptosis assay
[4] = administered orally; cited from earlier work

## ABT-737
BP3 cell line
  cytotoxic activity against BP3 cell lines: no cytotoxic activity

## CC1=C(C2=C(C)C(=O)c3c(cc(O)c(O)c3Cc3ccccc3)C2=O)C(=O)c2cc(O)c(O)c(Cc3ccccc3)c2C1=O [Compound 6i, 5,5′-dibenzyl-6,6′,7,7′-tetrahydroxy-3,3′-dimethyl-2,2′-binaphthyl-1,1′,4,4′-tetraone]
[1]
  tolerability / toxicity of treated mice: died
  tolerability of treated mice: well tolerated
[2]
  degraded after 1 h incubation in rat plasma preparations (second statement): 5%
Bcl-XL
  binding to Bcl-XL by 2D [15N,1H]-HSQC, qualitative: strong binding
PPC-1 xenograft tumors; mouse, in vivo
  survival of treated mice in first week: died

## CC1=C(C2=C(C)C(=O)c3c(cc(O)c(O)c3CC(C)C)C2=O)C(=O)c2cc(O)c(O)c(CC(C)C)c2C1=O [Compound 6b, 6,6′,7,7′-tetrahydroxy-5,5′-diisobutyl-3,3′-dimethyl-2,2′-binaphthyl-1,1′,4,4′-tetraone]
[1]
  tolerability / toxicity of treated mice: no observed toxicity
  in vivo activity compared to 6a: superior
[3]
  percent of maximum reduction in spleen weight (biological activity): 60-80%
  spleen weight reduction: 30-40%

## CC1=C(C2=C(C)C(=O)c3c(cc(O)c(O)c3Cc3ccc(-c4ccccc4)cc3)C2=O)C(=O)c2cc(O)c(O)c(Cc3ccc(-c4ccccc4)cc3)c2C1=O [Compound 6m, 5,5′-bis(biphenyl-4-ylmethyl)-6,6′,7,7′-tetrahydroxy-3,3′-dimethyl-2,2′-binaphthyl-1,1′,4,4′-tetraone]
GST–Bcl-XL ΔTM protein
  IC50: 160 to 630 nM

## CC1=C(C2=C(C)C(=O)c3c(cc(O)c(O)c3Cc3ccc(Cl)cc3)C2=O)C(=O)c2cc(O)c(O)c(Cc3ccc(Cl)cc3)c2C1=O [Compound 6l, 5,5′-bis(4-chlorobenzyl)-6,6′,7,7′-tetrahydroxy-3,3′-dimethyl-2,2′-binaphthyl-1,1′,4,4′-tetraone]
[1]
  tolerability / toxicity of treated mice: died
  tolerability of treated mice: well tolerated

## CC1=C(C2=C(C)C(=O)c3c(cc(O)c(O)c3CC3CCCC3)C2=O)C(=O)c2cc(O)c(O)c(CC3CCCC3)c2C1=O [Compound 6c, 5,5′-bis(cyclopentylmethyl)-6,6′,7,7′-tetrahydroxy-3,3′-dimethyl-2,2′-binaphthyl-1,1′,4,4′-tetraone]
Primary CLL cells
  LD50 primary CLL samples (Supplementary Figure 3A): 6.5 µM

## Cc1cc2c(C(C)C)c(O)c(O)c(C=O)c2c(O)c1-c1c(C)cc2c(C(C)C)c(O)c(O)c(C=O)c2c1O [Compound 1, 1,1′,6,6′,7,7′-Hexahydroxy-5,5′-diisopropyl-3,3′-dimethyl-2,2′-binaphthyl-8,8′-dicarboxaldehyde]
PPC-1 xenograft tumors; 25 mg/kg, i.p.
  survival of treated mice in first week: died

## CC1=C(C2=C(C)C(=O)c3c(cc(O)c(O)c3CCC3CCCCC3)C2=O)C(=O)c2cc(O)c(O)c(CCC3CCCCC3)c2C1=O [Compound 6d, 5,5′-bis(2-cyclohexylethyl)-6,6′,7,7′-tetrahydroxy-3,3′-dimethyl-2,2′-binaphthyl-1,1′,4,4′-tetraone]
[1]
  tolerability / toxicity of treated mice: no observed toxicity
  in vivo activity compared to 6a: superior

## CC1=C(C2=C(C)C(=O)c3c(cc(O)c(O)c3C(=O)NCC(C)c3ccccc3)C2=O)C(=O)c2cc(O)c(O)c(C(=O)NCC(C)c3ccccc3)c2C1=O (stereo not shown) [Compound 8a, 6,6′,7,7′-Tetrahydroxy-3,3′-dimethyl-1,1′,4,4′-tetraoxo-N^5,N^5′-bis(2-phenylpropyl)-1,1′,4,4′-tetrahydro-2,2′-binaphthyl-5,5′-dicarboxamide]
[1]
  tolerability / toxicity of treated mice: died
Bcl-XL
  binding to Bcl-XL by 2D [15N,1H]-HSQC, qualitative: strong binding

## CC1=C(C2=C(C)C(=O)c3c(cc(O)c(O)c3CCc3ccc(C)cc3)C2=O)C(=O)c2cc(O)c(O)c(CCc3ccc(C)cc3)c2C1=O [Compound 6f, 6,6′,7,7′-tetrahydroxy-3,3′-dimethyl-5,5′-bis(4-methylphenethyl)-2,2′-binaphthyl-1,1′,4,4′-tetraone]
[1]
  tolerability / toxicity of treated mice: no observed toxicity
  in vivo activity compared to 6a: superior
[1]; groups of seven mice, 60 μmol/kg
  signs of toxicity: no evident signs of toxicity
[2]
  degraded after 1 h incubation in rat plasma preparations (second statement): 14%
Bcl-XL
  binding to Bcl-XL by 2D [15N,1H]-HSQC, qualitative: strong binding
Primary CLL cells
  LD50 primary CLL sample (second of two, Supplementary 3B): 15 µM
PPC-1 xenograft tumors
  tumor response compared with control group in first week: strong tumor regression

## CC1=C(C2=C(C)C(=O)c3c(cc(O)c(O)c3C(C)C)C2=O)C(=O)c2cc(O)c(O)c(C(C)C)c2C1=O [Compound 6a, 6,6′,7,7′-tetrahydroxy-5,5′-diisopropyl-3,3′-dimethyl-2,2′-binaphthyl-1,1′,4,4′-tetraone]
[1]; 60 μmol/kg ip, maximum spleen shrinkage no more than 50%
  percent of maximum reduction in spleen weight (biological activity): 40%
[2]
  degraded after 1 h incubation in rat plasma preparations (second statement): 23%
Primary CLL cells
  LD50 primary CLL sample (first of two, Figure 2D): > 30 µM
  LD50 primary CLL sample (second of two, Supplementary 3B): > 30 µM
  LD50 primary CLL samples (Supplementary Figure 3A): > 30 µM
PPC-1 xenograft tumors; 50 mg/kg i.p. three times in first week
  weight loss in first week: ~ 5%
PPC-1 xenograft tumors
  tumor response compared with control group in first week: strong tumor regression
[4]
  maximum tolerated dose (MTD): above 240 mg/kg
